Drawing on patent US10858335B2 (Rigel Pharmaceuticals, Inc., priority 2014, dated 2020), this text covers IC50 for 44 molecules.

pIC50: −log10 of the molar value.

The test concerns GDF8 signaling (p-SMAD-3 (Ser423/425)). Put plainly: AlphaScreen SureFire SMAD3 (p-Ser423/425) assay, GDF8-stimulated cells (GDF pSMAD). Particulars: Mus musculus, MPC-11, MPC11; GDF8-stimulated; p-SMAD3 AlphaScreen; read-out: GDF pSMAD (MPC11) (inhibition of GDF8 signaling). Format: cell-based. For orientation: Bead proximity is the source of the signal in Alpha formats.
With `Fc1ccc(Cl)cc1-c1ncccc1-c1ccc2nccnc2n1` [compound 742, 6-(2-(5-Chloro-2-fluorophenyl)pyridin-3-yl)pyrido[2,3-b]pyrazine], the pIC50 is 5.74. Next, `Fc1cc(F)c(-c2ncccc2-c2ccc3nccnc3n2)cc1Cl` [compound 743, 6-(2-(5-Chloro-2,4-difluorophenyl)pyridin-3-yl)pyrido[2,3-b]pyrazine]: 6.19; `Clc1cccc(-c2ncccc2-c2ccc3ncnn3c2)c1` [compound 746, 6-(2-(3-Chlorophenyl)pyridin-3-yl)-[1,2,4]triazolo[1,5-a]pyridine]: 6.25. In the case of `Fc1ccc(Cl)cc1-c1ncccc1-c1ccc2ncnn2c1` [compound 747, 6-(2-(5-Chloro-2-fluorophenyl)pyridin-3-yl)-[1,2,4]triazolo[1,5-a]pyridine] it was 6.55; in that of `Cc1ccc(F)c(-c2ncccc2-c2ccc3ncnn3c2)c1` [compound 748, 6-(2-(2-Fluoro-5-methylphenyl)pyridin-3-yl)-[1,2,4]triazolo[1,5-a]pyridine], 6.35; in that of `Fc1cc(F)c(-c2ncccc2-c2ccc3ncnn3c2)cc1Cl` [compound 749, 6-(2-(5-Chloro-2,4-difluorophenyl)pyridin-3-yl)-[1,2,4]triazolo[1,5-a]pyridine], 6.53. Next, `Cc1cc(-c2ncccc2-c2ccn3nccc3c2)ccc1F` [compound 756, 5-(2-(4-Fluoro-3-methylphenyl)pyridin-3-yl)pyrazolo[1,5-a]pyridine]: 6.44; `Cc1cccc(-c2ncccc2-c2ccn3nccc3c2)c1` [compound 757, 5-(2-(m-Tolyl)pyridin-3-yl)pyrazolo[1,5-a]pyridine]: 6.89; `Fc1ccc(-c2ncccc2-c2ccn3nccc3c2)cc1Cl` [compound 758, 5-(2-(3-Chloro-4-fluorophenyl)pyridin-3-yl)pyrazolo[1,5-a]pyridine]: 6.37. As for `Clc1cccc(-c2ncccc2-c2ccn3nccc3c2)c1` [compound 759, 5-(2-(3-Chlorophenyl)pyridin-3-yl)pyrazolo[1,5-a]pyridine], the pIC50 was 6.76. Next, `Fc1cc(F)c(-c2ncccc2-c2ccn3nccc3c2)cc1Cl` [compound 760, 5-(2-(5-Chloro-2,4-difluorophenyl)pyridin-3-yl)pyrazolo[1,5-a]pyridine]: 6.56; `Fc1ccc(Cl)cc1-c1ncccc1-c1ccn2nccc2c1` [compound 761, 5-(2-(5-Chloro-2-fluorophenyl)pyridin-3-yl)pyrazolo[1,5-a]pyridine]: 6.88. Next, `CC(=O)c1cnc2ccc(-c3cccnc3-c3ccc(F)c(Cl)c3)cn12` [compound 762, 1-(6-(2-(3-Chloro-4-fluorophenyl)pyridin-3-yl)imidazo[1,2-a]pyridin-3-yl)ethan-1-one]: 5.93; `CC(=O)c1cnc2ccc(-c3cccnc3-c3cccc(Cl)c3)cn12` [compound 763, 1-(6-(2-(3-Chlorophenyl)pyridin-3-yl)imidazo[1,2-a]pyridin-3-yl)ethan-1-one]: 6.28. For the molecule `Cc1cnc2ccc(-c3cccnc3-c3ccc(F)c(Cl)c3)cn12` [compound 764, 6-(2-(3-Chloro-4-fluorophenyl)pyridin-3-yl)-3-methylimidazo[1,2-a]pyridine], the pIC50 is 6.56.

Regarding `Cc1cnc2ccc(-c3cccnc3-c3cccc(Cl)c3)cn12` [compound 765, 6-(2-(3-Chlorophenyl)pyridin-3-yl)-3-methylimidazo[1,2-a]pyridine], the pIC50 is 7.02. With `Cc1cnc2ccc(-c3cccnc3-c3cc(Cl)c(F)cc3F)cn12` [compound 766, 6-(2-(5-Chloro-2,4-difluorophenyl)pyridin-3-yl)-3-methylimidazo[1,2-a]pyridine], the pIC50 is 6.98.

With `Cc1cnc2ccc(-c3cccnc3-c3cc(Cl)ccc3F)cn12` [compound 767, 6-(2-(5-Chloro-2-fluorophenyl)pyridin-3-yl)-3-methylimidazo[1,2-a]pyridine], the pIC50 is 6.64.

`Cn1cnc2ccc(-c3cccnc3-c3ccc(F)c(Cl)c3)cc21` [compound 768, 6-(2-(3-Chloro-4-fluorophenyl)pyridin-3-yl)-1-methyl-1H-benzo[d]imidazole]: the pIC50 is 6.49. Turning to `Cn1cnc2ccc(-c3cccnc3-c3cccc(Cl)c3)cc21` [compound 769, 6-(2-(3-Chlorophenyl)pyridin-3-yl)-1-methyl-1H-benzo[d]imidazole], the pIC50 was 6.81. Turning to `Fc1cc(Cl)cc(-c2ncccc2-c2ccc3ncnn3c2)c1` [compound 770, 6-(2-(3-Chloro-5-fluorophenyl)pyridin-3-yl)-[1,2,4]triazolo[1,5-a]pyridine], the pIC50 was 5.88. Next, `Clc1ccc(Cl)c(-c2ncccc2-c2ccc3ncnn3c2)c1` [compound 771, 6-(2-(2,5-Dichlorophenyl)pyridin-3-yl)-[1,2,4]triazolo[1,5-a]pyridine]: 5.96; `Fc1c(Cl)cccc1-c1ncccc1-c1ccc2ncnn2c1` [compound 772, 6-(2-(3-Chloro-2-fluorophenyl)pyridin-3-yl)-[1,2,4]triazolo[1,5-a]pyridine]: 5.31; `Cc1c(Cl)cccc1-c1ncccc1-c1ccc2ncnn2c1` [compound 773, 6-(2-(3-Chloro-2-methylphenyl)pyridin-3-yl)-[1,2,4]triazolo[1,5-a]pyridine]: 5.07. In the case of `Cc1cc(Cl)cc(-c2ncccc2-c2ccc3ncnn3c2)c1` [compound 775, 6-(2-(3-Chloro-5-methylphenyl)pyridin-3-yl)-[1,2,4]triazolo[1,5-a]pyridine] it was 5.40. In the case of `COc1cccc(-c2ncccc2-c2ccc3ncnn3c2)c1` [compound 779, 6-(2-(3-Methoxyphenyl)pyridin-3-yl)-[1,2,4]triazolo[1,5-a]pyridine] it was 6.12; in that of `FC(F)(F)Oc1cccc(-c2ncccc2-c2ccc3ncnn3c2)c1` [compound 780, 6-(2-(3-(Trifluoromethoxy)phenyl)pyridin-3-yl)-[1,2,4]triazolo[1,5-a]pyridine], 6.14. `c1ccc(-c2ncccc2-c2ccc3ncnn3c2)cc1` [compound 781, 6-(2-Phenylpyridin-3-yl)-[1,2,4]triazolo[1,5-a]pyridine]: the pIC50 was 5.23. In the case of `Fc1ccc(-c2ncccc2-c2ccc3nc[nH]c3c2)cc1Cl` [compound 782, 6-(2-(3-Chloro-4-fluorophenyl)pyridin-3-yl)-1H-benzo[d]imidazole] it was 6.48; in that of `Clc1cccc(-c2ncccc2-c2ccc3nc[nH]c3c2)c1` [compound 783], 6.64. Next, `Cn1cnc2ccc(-c3cccnc3-c3cc(Cl)c(F)cc3F)cc21` [compound 784, 6-(2-(5-Chloro-2,4-difluorophenyl)pyridin-3-yl)-1-methyl-1H-benzo[d]imidazole]: 6.90. Turning to `Cn1cnc2ccc(-c3cccnc3-c3cc(Cl)ccc3F)cc21` [compound 785, 6-(2-(5-Chloro-2-fluorophenyl)pyridin-3-yl)-1-methyl-1H-benzo[d]imidazole], the pIC50 is 6.96.

Consider `Cc1cc(-c2ncccc2-c2ccc3c(N)n[nH]c3c2)ccc1F` [compound 786, 6-(2-(4-Fluoro-3-methylphenyl)pyridin-3-yl)-1H-indazol-3-amine], for which the pIC50 is 6.47.

As for `Cc1cc(-c2ncccc2-c2ccc3[nH]nc(N)c3c2)ccc1F` [compound 788, 5-(2-(4-Fluoro-3-methylphenyl)pyridin-3-yl)-1H-indazol-3-amine], the pIC50 is 5.39. For `Cc1cc(-c2ncccc2-c2ccc3ncc(C(=O)N[C@@H]4CN5CCC4CC5)n3c2)ccc1F` [compound 790, (S)-6-(2-(4-Fluoro-3-methylphenyl)pyridin-3-yl)-N-(quinuclidin-3-yl)imidazo[1,2-a]pyridine-3-carboxamide], the pIC50 is 5.30. Next, `Cc1cc(-c2ncccc2-c2ccc3ncc(C(=O)N[C@H]4CN5CCC4CC5)n3c2)ccc1F` [compound 791, (R)-6-(2-(4-Fluoro-3-methylphenyl)pyridin-3-yl)-N-(quinuclidin-3-yl)imidazo[1,2-a]pyridine-3-carboxamide]: 5.27. In the case of `Cc1cc(-c2ncccc2-c2ccn3ncc(C(=O)N[C@@H]4CN5CCC4CC5)c3c2)ccc1F` [compound 792, (S)-5-(2-(4-Fluoro-3-methylphenyl)pyridin-3-yl)-N-(quinuclidin-3-yl)pyrazolo[1,5-a]pyridine-3-carboxamide] it was 5.61. Next, `Cc1cc(-c2ncccc2-c2ccn3ncc(C(=O)N[C@H]4CN5CCC4CC5)c3c2)ccc1F` [compound 793, (R)-5-(2-(4-Fluoro-3-methylphenyl)pyridin-3-yl)-N-(quinuclidin-3-yl)pyrazolo[1,5-a]pyridine-3-carboxamide]: 5.68; `Cc1cc(-c2ncccc2-c2ccc3c(N)noc3c2)ccc1F` [compound 794, 6-(2-(4-Fluoro-3-methylphenyl)pyridin-3-yl)benzo[d]isoxazol-3-amine]: 5.75; `Cc1cc(-c2ncccc2-c2ccc3onc(N)c3c2)ccc1F` [compound 795, 5-(2-(4-Fluoro-3-methylphenyl)pyridin-3-yl)benzo[d]isoxazol-3-amine]: 5.09. Regarding `Nc1noc2ccc(-c3cccnc3-c3ccc(F)c(Cl)c3)cc12` [compound 796, 5-(2-(3-Chloro-4-fluorophenyl)pyridin-3-yl)benzo[d]isoxazol-3-amine], the pIC50 is 4.85. In the case of `Nc1noc2cc(-c3cccnc3-c3ccc(F)c(Cl)c3)ccc12` [compound 797, 6-(2-(3-Chloro-4-fluorophenyl)pyridin-3-yl)benzo[d]isoxazol-3-amine] it was 5.42. Turning to `Nc1noc2cc(-c3cccnc3-c3cccc(Cl)c3)ccc12` [compound 798, 6-(2-(3-Chlorophenyl)pyridin-3-yl)benzo[d]isoxazol-3-amine], the pIC50 is 5.58.

With `Nc1noc2ccc(-c3cccnc3-c3cccc(Cl)c3)cc12` [compound 799, 5-(2-(3-Chlorophenyl)pyridin-3-yl)benzo[d]isoxazol-3-amine], the pIC50 was 4.83.
